Source: ChEMBL document CHEMBL1201862, “PubChem BioAssay data set” (2004)
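Where inhibition never reached the appropriate level, the endpoint shown equals the highest concentration tested. Otherwise, values were interpolated linearly from a five-concentration, 48-hour dose response in 96-well plates. GI50 is the concentration that inhibits growth by half.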 Calls of active or inactive are those of the source. No stated cut-off is given here; in the data, active = GI50 up to about 1.1 µM and inactive = higher.

Assays:
Assay in all cases: NCI-60 cell line screen, 48 h
A549 = system: A549
HT-29 = system: HT-29
IGROV-1 = system: IGROV-1
M14 = system: M14
NCI-H460 = system: NCI-H460
NCI-H522 = system: NCI-H522
OVCAR-4 = system: OVCAR-4
RXF 393 = system: RXF 393
SF-268 = system: SF-268
SK-MEL-28 = system: SK-MEL-28
SK-OV-3 = system: SK-OV-3
SNB-19 = system: SNB-19
TK-10 = system: TK-10
UACC-62 = system: UACC-62
UO-31 = system: UO-31
SK-MEL-5 = system: SK-MEL-5

Measured: GI50

COCOC1CCCC[C@@]1(OCCOCCO[C@@]1(c2ccccc2)CCCC[C@H]1OCOC)c1ccccc1 (stereo not given in full)
inactive: A549 99.5 µM | HT-29 > 100 µM | IGROV-1 > 100 µM | M14 44.7 µM | NCI-H460 > 100 µM | NCI-H522 > 100 µM | OVCAR-4 > 100 µM | RXF 393 23.1 µM | SF-268 > 100 µM | SK-MEL-28 > 100 µM | SK-OV-3 67.9 µM | SNB-19 > 100 µM | TK-10 70.6 µM | UACC-62 > 100 µM | UO-31 > 100 µM

O=[N+]([O-])C=C(c1ccc(Cl)cc1)c1ccc(Cl)cc1
inactive: A549 19.7 µM | HT-29 18.9 µM | IGROV-1 28.1 µM | M14 14.8 µM | NCI-H460 20.3 µM | NCI-H522 14.4 µM | OVCAR-4 13.5 µM | RXF 393 18.7 µM | SK-MEL-28 16.8 µM | SNB-19 18.5 µM | TK-10 19.4 µM | UO-31 14.2 µM

CC(=O)OC1CCn2nnc(CO[Si](C)(C)C(C)(C)C)c21 (stereo not given)
inactive: A549 > 100 µM | HT-29 > 100 µM | IGROV-1 > 100 µM | M14 > 100 µM | NCI-H460 > 100 µM | NCI-H522 > 100 µM | OVCAR-4 > 100 µM | RXF 393 > 100 µM | SK-MEL-28 > 100 µM | SK-MEL-5 > 100 µM | SK-OV-3 > 100 µM | SNB-19 > 100 µM | TK-10 > 100 µM | UO-31 > 100 µM

O=c1[nH]c(=O)n(C2CC(O)C(CO)O2)cc1C#Cc1ccc(F)cc1 (stereo not given)
inactive: A549 > 100 µM | HT-29 > 100 µM | IGROV-1 > 100 µM | M14 > 100 µM | NCI-H460 > 100 µM | NCI-H522 > 100 µM | OVCAR-4 25.8 µM | SF-268 > 100 µM | SK-MEL-28 > 100 µM | SK-MEL-5 > 100 µM | SK-OV-3 > 100 µM | SNB-19 > 100 µM | UACC-62 > 100 µM | UO-31 > 100 µM

Cc1ccc(NC(=O)CSc2nnc(-c3ccc(/N=C\c4ccc(Cl)cc4)cc3)o2)cc1
inactive: A549 > 100 µM | HT-29 > 100 µM | M14 > 100 µM | NCI-H460 > 100 µM | NCI-H522 34.3 µM | OVCAR-4 > 100 µM | RXF 393 > 100 µM | SF-268 > 100 µM | SK-MEL-28 > 100 µM | SK-MEL-5 > 100 µM | SK-OV-3 > 100 µM | SNB-19 > 100 µM | TK-10 > 100 µM | UACC-62 > 100 µM | UO-31 > 100 µM
